# Assay results reported in patent US5589513A, “Pharmaceutical composition and process for the preparation thereof” (Chinoin Gyogyszer es Vegyeszeti Termekek Gyara Rt., priority 1991, dated 1996).
# Counter-ions that a name gives are not always drawn. Like-named read-outs stand apart in the source and are kept apart here.
# Tests used:
# [1] = system: MPP^+ uptake to the striatatal synaptosones; assay: MPP+ uptake to striatal synaptosomes; assay type: biochemical; conditions: for IC50: striatal synaptosomes; for uptake inhibitory potency: potential metabolites
# Experimental: (§1) 3.) The potential metabolites of deprenyl and p-fluoro-deprenyl, (methylamphetamine, amphetamine and p-fluoro-methylamphetamine, p-fluoro-amphetamine, respectively) have a significant uptake inhibitory potency; they can prevent in vivo the MPTP neurotoxicity without the development of a high degree of MAO inhibition. The tests were carried out according to the method of Heikilla [Nature, 311, 467-469 (1984)].
# [2] = system: NA uptake, rat brain synaptosomas, HYPOTHALAMUS; assay: In vitro NA uptake inhibition on brain synaptosomes (hypothalamus); assay type: biochemical
# [3] = system: DA uptake, rat brain synaptosomas, STRIATUM; assay: In vitro DA uptake inhibition on brain synaptosomes (striatum); assay type: biochemical
# DSP-4 neurotoxicity [4] = assay: Interaction of deprenyl and p-fluoro-deprenyl metabolites with DSP-4 neurotoxicity; assay type: in vivo, rats; conditions: for prevention of DSP-4 induced neurotoxicity in vivo: dose of 1-5 mg/kg i.p., without development of MAO inhibition
# Experimental: The tests were carried out according to the method of Finnegan [Finnegan et al., Eur. J. Pharmacol., 184, 119-126, (1990)].
# DSP-4 neurotoxicity [5] = assay: Inhibition of DSP-4 neurotoxicity after oral deprenyl formulations (hippocampus noradrenaline, survival); assay type: in vivo; conditions: 3 mg/kg p.o.; 50 mg/kg DSP-4 ip.; rats
# Experimental: The inhibition of DSP-4 neurotoxicity was measured in rats. For treating rats the schedule of Finnegan was followed [Finnegan et al., Eur. J. Pharmacol., 184, 119-126, (1990)].
# Wistar male rats, weighing 170-200 g were used. Animals were housed six to a cage under constant temperature (22° C.), in a room illuminated 12 h per day. Food and water were freely available. Rats were pretreated orally with 3 mg/kg of the combination of example 3 (1 mg/kg "fast" (F)+2 mg/kg "slow" (S)), 1, 2, 4 and 8 hours before DSP-4 treatment (50 mg/kg; intraperitoneally).
# Each hippocampus of the rats […].
# MAO-A [6] = assay: Inhibition of MAO activity in brain nucleus free homogenates, 14C-5-HT substrate; assay type: in vivo, domestic pig; conditions: pig; p. os 96 h; UG-111 48 h (patch 24 h); UG-167 72 h (patch 48 h); UG-191 96 h (patch 72 h)
# Experimental: (§2) MAO activity was measured radiometrically according to the methods of Wurtman and Axelrod [Biochem. Pharmacol. 12. 1414-19; (1963)] with a slight modification [K. Magyar in: Monoamine Oxidases and their Selective Inhibition, Ed.: K. Magyar, Pergamon Press, Akademiai Kiado, Budapest, 11-21; (1980)].
# MAO-A [7] = assay: Inhibition of MAO activity in liver, 14C-5-HT substrate; assay type: in vivo, domestic pig; conditions: pig; times as for brain; where three numbers are printed, apparently single animals
# Experimental: as §2
# [8] = system: MPTP induced neuronal damage; conditions: literature; cited from earlier work
# DSP-4 induced toxicity = conditions: literature; cited from earlier work
# MPTP neurotoxicity = MPTP neurotoxicity (dopamine, DOPAC, HVA levels); assay type: in vivo; set-up: DOPAC: unit not given beside the values; conditions: for prevention of MPTP neurotoxicity in vivo: without a high degree of MAO inhibition
# Experimental: as §1
# [9] = Distribution of labelled deprenyl and p-fluoro-deprenyl in brain regions and plasma after oral administration; assay type: in vivo; conditions: rats, deprenyl […], p-fluoro-deprenyl 10 mg/kg
# Excerpt: The simultaneous presence and the equal quantities of the two labels indicate the unchanged molecule (the data relate to the molar concentrations calculated on the basis of the two labels).
# [10] = pretreatment 10 mg/kg i.p., DSP-4 50
# [11] = read-out: In vitro uptake inhibition DA STRIATUM
# [12] = pretreatment 1 mg/kg i.p., DSP-4 50
# [13] = pretreatment 5 mg/kg i.p., DSP-4 30
# [14] = 1. treatment MPTP, 2. treatment the substance (MPTP: phys.s.)
# [15] = 1. treatment MPTP, 2. treatment the substance (MPTP: phys.s.), % of physiological salt control
# [16] = 1. treatment MPTP, 2. treatment the substance (MPTP: phys.s.), time between treatments 30
# [17] = 1. treatment the substance, 2. treatment MPTP
# [18] = 1. treatment the substance, 2. treatment MPTP, % of physiological salt control
structure (smiles),measurement,setting,value
"CC(N)Cc1ccc(F)cc1 (single isomer, unassigned; (+)) [(+)-p-F-amphetamine]",IC50,[1],0.1 µM
"CNC(C)Cc1ccc(F)cc1 (single isomer, unassigned; (+)) [(+)-p-F-metamphetamine]",IC50,[1],1.3 µM
same,IC50,[2]; listed as (+)-p-FLUORO-MA,7.7 µM
same,IC50,"[3]; read-out: In vitro uptake inhibition DA STRIATUM, listed as (+)-p-FLUORO-MA",23 µM
"CC(N)Cc1ccc(F)cc1 (single isomer, unassigned; (-)) [(-)-p-F-amphetamine]",IC50,[1],0.72 µM
"CNC(C)Cc1ccc(F)cc1 (single isomer, unassigned; (-)) [(-)-p-F-metamphetamine]",IC50,[1],1.3 µM
same,IC50,[2]; listed as (-)-p-FLUORO-MA,7.5 µM
same,IC50,"[3]; read-out: In vitro uptake inhibition DA STRIATUM, listed as (-)-p-FLUORO-MA",300 µM
same,Survival %,DSP-4 neurotoxicity [4]; [10],0%
"C#CCN(C)C(C)Cc1ccc(F)cc1 (single isomer, unassigned; (-)) [(-)-p-FLUORO-D]",IC50,[2],13 µM
same,IC50,[3]; [11],29 µM
C#CCN(C)[C@@H](C)Cc1ccc(F)cc1 [(+)-p-FLUORO-D],IC50,[2],6.1 µM
same,IC50,[3]; [11],16 µM
"C#CCN(C)[C@H](C)Cc1ccccc1 [(-)-deprenyl, (-)N-(-1-phenyl-isopropyl)-N-methyl-propinylamine-hydrochloride]",prevention of the neurotoxicity of DSP-4,DSP-4 neurotoxicity [5],can prevent
same,inhibition of MAO activity (%) brain 14C-5-HT,MAO-A [6],20.14 ± 6.0%
same,inhibition of MAO activity (%) liver 14C-5-HT,MAO-A [7],10.45 ± 6.4%
same,effect on MPTP induced neuronal damage,[8],can be prevented
CN[C@H](C)Cc1ccccc1 [(-)-metamphetamine],Na content of hippocampus in % ± S.D.,DSP-4 neurotoxicity [4]; [12],61 ± 3.5%
same,Survival %,DSP-4 neurotoxicity [4]; [12],100%
same,Na content of hippocampus in % ± S.D.,DSP-4 neurotoxicity [4]; [13],116 ± 2.1%
same,Survival %,DSP-4 neurotoxicity [4]; [13],63%
same,Survival %,DSP-4 neurotoxicity [4]; [10],0%
"NC/C(=C/F)CCc1ccc(F)cc1 [MDL 72974A, (E)-4-fluoro-beta-fluoro-ethylene benzene butamine]",effect on DSP-4 induced toxicity / NA depletion,DSP-4 induced toxicity,fails to prevent DSP-4 induced toxicity
"CN1CC=C(c2ccccc2)CC1 [MPTP, 1-methyl-4-phenyl-1,2,3,6-tetrahydropyridine]",DOPAC,MPTP neurotoxicity; [14],0.7 ± 0.04
same,HVA (homovanillic acid),MPTP neurotoxicity; [14],1.3 ± 0.07
same,DOPAC %,MPTP neurotoxicity; [15],77%
same,Dopamine %,MPTP neurotoxicity; [15],53%
same,HVA (homovanillic acid),MPTP neurotoxicity; [15],79%
same,Dopamine,MPTP neurotoxicity; [16],8.0 ± 0.5
OC1(c2ccc(Cl)cc2)c2ccccc2C2=NCCN21 (stereo not drawn) [Mazindol],DOPAC,MPTP neurotoxicity; [14],1.1 ± 0.08
same,DOPAC %,MPTP neurotoxicity; [15],122%
same,Dopamine %,MPTP neurotoxicity; [15],98%
same,Dopamine,MPTP neurotoxicity; [16],14.0 ± 0.8
same,effect on MPTP induced neuronal damage,[8],can be retarded
C#CCN(C)Cc1ccccc1 [Pargyline],DOPAC,MPTP neurotoxicity; [14],0.5 ± 0.04
same,HVA (homovanillic acid),MPTP neurotoxicity; [14],0.9 ± 0.09
same,DOPAC %,MPTP neurotoxicity; [15],55%
same,Dopamine %,MPTP neurotoxicity; [15],47%
same,HVA (homovanillic acid),MPTP neurotoxicity; [15],64%
same,Dopamine,MPTP neurotoxicity; [16],7.1 ± 0.6
same,DOPAC,MPTP neurotoxicity; [17],1.0 ± 0.06
same,HVA (homovanillic acid),MPTP neurotoxicity; [17],1.4 ± 0.06
same,Dopamine,"MPTP neurotoxicity; 1. treatment the substance, 2. treatment MPTP (pretreatment)",13.8 ± 0.5
same,DOPAC %,MPTP neurotoxicity; [18],111%
same,Dopamine %,MPTP neurotoxicity; [18],91%
same,HVA (homovanillic acid),MPTP neurotoxicity; [18],100%
CC(N)Cc1ccccc1 (stereo not drawn) [amphetamine],uptake inhibitory potency,[1],significant
same,prevention of MPTP neurotoxicity in vivo,MPTP neurotoxicity,can prevent
same,prevention of DSP-4 induced neurotoxicity in vivo,DSP-4 neurotoxicity [4],able to prevent
"CNCCCN1c2ccccc2CCc2ccccc21 [desipramine, 10,11-Dihydro-N-methyl-5-H-dibenz(6,7)azepine-5-propanamine]",effect on DSP-4 induced toxicity / NA depletion,DSP-4 induced toxicity,inhibit the NA-depleting effect of DSP-4
CC(N)Cc1ccc(F)cc1 (stereo not drawn) [p-fluoro-amphetamine],uptake inhibitory potency,[1],significant
same,prevention of MPTP neurotoxicity in vivo,MPTP neurotoxicity,can prevent
same,prevention of DSP-4 induced neurotoxicity in vivo,DSP-4 neurotoxicity [4],able to prevent
C#CCN(C)C(C)Cc1ccc(F)cc1 (stereo not drawn) [p-fluoro-deprenyl],time in which the unchanged compound was absorbed,[9],15 min
